Assay results as given in patent US20150141381A1, “TETRACYCLINE COMPOUNDS HAVING TARGET THERAPEUTIC ACTIVITIES” (Paratek Pharmaceuticals, Inc., priority 2001, published 2015).
Where two headings read alike, the source gives them in different places.

Assays:
S. aureus RN450 = assay: In Vitro Anti-Bacterial Activity Assay (MIC), gram positive; format: cell-based; details: Staphylococcus aureus, RN450, 18 h
E. coli mL308 225 = assay: In Vitro Anti-Bacterial Activity Assay (MIC), gram negative; format: cell-based; details: Escherichia coli, ML308225, 18 h
[1] = gram positive bacteria, read-out: Antibiotic Activity Gram + (MIC)
[2] = gram negative bacteria, read-out: Antibiotic Activity Gram − (MIC)

Structure (SMILES)	MIC (S. aureus RN450; [1]) [µg/mL]	MIC (E. coli mL308 225; [2]) [µg/mL]	also measured
CCOP(=O)(OCC)C(Nc1ccc2c(c1O)C(=O)C1=C(O)[C@]3(O)C(=O)C(C(N)=O)=C(O)[C@@H](N(C)C)[C@@H]3[C@@H](O)[C@@H]1[C@H]2C)c1ccccc1 (stereo partly shown)	–	–	MIC (S. aureus RN450; read-out: Gram+ activity): < 4 µg/mL; MIC (E. coli mL308 225; read-out: Gram− activity): > 4 µg/mL
CCOP(=O)(OCC)C(Nc1ccc2c(c1O)C(=O)C1=C(O)[C@]3(O)C(=O)C(C(N)=O)=C(O)[C@@H](N(C)C)[C@@H]3[C@@H](O)[C@@H]1[C@H]2C)c1ccc(OC)cc1 (stereo partly shown)	–	–	MIC (S. aureus RN450; read-out: Gram+ activity): < 4 µg/mL; MIC (E. coli mL308 225; read-out: Gram− activity): > 4 µg/mL
CN(C)c1cc(NC(=O)Oc2ccc(O)cc2)c(O)c2c1C[C@H]1C[C@H]3[C@H](N(C)C)C(O)=C(C(N)=O)C(=O)[C@@]3(O)C(O)=C1C2=O	–	–	MIC (S. aureus RN450; read-out: Antibiotic Activity Gram + (MIC)): > 4 µg/mL; MIC (E. coli mL308 225; read-out: Antibiotic Activity Gram − (MIC)): > 4 µg/mL
CCCN(CCC)Cc1ccc(-c2ccc(O)c3c2C[C@H]2C[C@H]4[C@H](N(C)C)C(O)=C(C(N)=O)C(=O)[C@@]4(O)C(O)=C2C3=O)c2ccccc12	< 4	< 4	–
CCOC(=O)CNCc1ccc(-c2ccc(O)c3c2C[C@H]2C[C@H]4[C@H](N(C)C)C(O)=C(C(N)=O)C(=O)[C@@]4(O)C(O)=C2C3=O)c2ccccc12	< 4	< 4	–
O=c1cc(-c2ccc(F)cc2)oc2ccccc12	< 4	< 4	–
CN(C)CCC(=O)c1cc(C(C)(C)C)c(O)c2c1C[C@H]1C[C@H]3[C@H](N(C)C)C(O)=C(C(N)=O)C(=O)[C@@]3(O)C(O)=C1C2=O	< 4	< 4	–
CN(C)[C@@H]1C(O)=C(C(N)=O)C(=O)[C@@]2(O)C(O)=C3C(=O)c4c(O)c(C(C)(C)C)cc(-c5cnc6ccccc6c5)c4C[C@H]3C[C@@H]12	> 4	> 4	–
CN(C)c1ccc(-c2cc(I)c(O)c3c2C[C@H]2C[C@H]4[C@H](N(C)C)C(O)=C(C(N)=O)C(=O)[C@@]4(O)C(O)=C2C3=O)cc1	< 4	> 4	–
C[C@H]1c2ccc(-c3ccc(N(C)C)cc3)c(O)c2C(=O)C2=C(O)[C@]3(O)C(=O)C(C(N)=O)=C(O)[C@@H](N(C)C)[C@@H]3[C@@H](O)[C@@H]21	< 4	< 4	–
CCCOC(=O)Nc1ccc(-c2ccc(O)c3c2C[C@H]2C[C@H]4[C@H](N(C)C)C(O)=C(C(N)=O)C(=O)[C@@]4(O)C(O)=C2C3=O)cc1	< 4	< 4	–
CN(C)CCNC(=O)c1ccc(-c2ccc(O)c3c2C[C@H]2C[C@H]4[C@H](N(C)C)C(O)=C(C(N)=O)C(=O)[C@@]4(O)C(O)=C2C3=O)cc1	< 4	> 4	–
CCc1cc(-c2ccc(N(C)C)cc2)c2c(c1O)C(=O)C1=C(O)[C@]3(O)C(=O)C(C(N)=O)=C(O)[C@@H](N(C)C)[C@@H]3C[C@@H]1C2	< 4	< 4	–
CN(C)[C@@H]1C(O)=C(C(N)=O)C(=O)[C@@]2(O)C(O)=C3C(=O)c4c(O)ccc(-c5ccc(NC(=O)OC(C)(C)C)cc5)c4C[C@H]3C[C@@H]12	< 4	< 4	–
CN(C)CCNC(=O)c1cccc(-c2ccc(O)c3c2C[C@H]2C[C@H]4[C@H](N(C)C)C(O)=C(C(N)=O)C(=O)[C@@]4(O)C(O)=C2C3=O)c1	< 4	> 4	–
Cc1ccc(-c2ccc(O)c3c2C[C@H]2C[C@H]4[C@H](N(C)C)C(O)=C(C(N)=O)C(=O)[C@@]4(O)C(O)=C2C3=O)cc1N	< 4	< 4	–
CN(C)[C@@H]1C(O)=C(C(N)=O)C(=O)[C@@]2(O)C(O)=C3C(=O)c4c(O)ccc(-c5ccc(CO)cc5)c4C[C@H]3C[C@@H]12	< 4	< 4	–
CN(C)[C@@H]1C(O)=C(C(N)=O)C(=O)[C@@]2(O)C(O)=C3C(=O)c4c(O)ccc(-c5ccc(F)c(C=O)c5)c4C[C@H]3C[C@@H]12	< 4	< 4	–
CN(C)[C@@H]1C(O)=C(C(N)=O)C(=O)[C@@]2(O)C(O)=C3C(=O)c4c(O)ccc(-c5cc(F)cc(F)c5)c4C[C@H]3C[C@@H]12	< 4	< 4	–
C[C@H]1c2ccc(-c3ccc(C=O)c4ccccc34)c(O)c2C(=O)C2=C(O)[C@]3(O)C(=O)C(C(N)=O)=C(O)[C@@H](N(C)C)[C@@H]3[C@@H](O)[C@@H]21	< 4	< 4	–
C[C@H]1c2ccc(-c3ccc(C=O)cc3)c(O)c2C(=O)C2=C(O)[C@]3(O)C(=O)C(C(N)=O)=C(O)[C@@H](N(C)C)[C@@H]3[C@@H](O)[C@@H]21	< 4	< 4	–
C[C@H]1c2ccc(-c3cccc(C=O)c3)c(O)c2C(=O)C2=C(O)[C@]3(O)C(=O)C(C(N)=O)=C(O)[C@@H](N(C)C)[C@@H]3[C@@H](O)[C@@H]21	< 4	< 4	–
COc1ccc(-c2ccc3c(c2O)C(=O)C2=C(O)[C@]4(O)C(=O)C(C(N)=O)=C(O)[C@@H](N(C)C)[C@@H]4[C@@H](O)[C@@H]2[C@H]3C)cc1CC1CCCC1	> 4	> 4	–
